In article PMC10557102 (Pharmacology Research & Perspectives, 2023):
Values joined by “and” are separate entries in the source; they are usually repeats but may differ in a detail not shown here. Equal entries are not always repeated. Where two headings read alike, the source gives them in different places.

Columns and labels:
[1] = target: CYP2C9 (Homo sapiens, UniProt P11712); details: with flurbiprofen, tolbutamide, and warfarin; cited from earlier work
[2] = target: T1, CYP3A4 (Homo sapiens, UniProt P08684); test: Cocktail DDI study: PK of midazolam and 1-OH midazolam with/without nivasorexant; details: for t max: median (range); for t max median difference B–A / t max median difference D–A: median difference (90% CI); for t ½ ratio Trt B/Trt A / t ½ ratio Trt D/Trt A / AUC0–24 ratio Trt B/Trt A / C max ratio Trt B/Trt A / AUC0–24 ratio Trt D/Trt A / C max ratio Trt D/Trt A: ratio of geometric means (90% CI); for AUC0–24 ratio Trt B/Trt A / C max ratio Trt B/Trt A: initial nivasorexant dose vs cocktail alone; for AUC0–24 ratio Trt D/Trt A / C max ratio Trt D/Trt A: nivasorexant steady state vs cocktail alone; for AUC(0-t) / half-life: both, human, plasma, oral; for half-life: t ½
[3] = test system: CYP2C19; details: 25 mg b.i.d. for 6 days; cited from earlier work
[4] = test system: healthy subjects; test: Safety and tolerability in the clinical study; details: Day 1 to Day 15, healthy subjects
[5] = test system: CYP2C9; details: for t max: median (range); for half-life: t ½; for t max median difference B–A / t max median difference D–A: median difference (90% CI); for t ½ ratio Trt B/Trt A / t ½ ratio Trt D/Trt A / AUC0–24 ratio Trt B/Trt A / C max ratio Trt B/Trt A / AUC0–24 ratio Trt D/Trt A / C max ratio Trt D/Trt A: ratio of geometric means (90% CI); for AUC0–24 ratio Trt B/Trt A / C max ratio Trt B/Trt A: initial nivasorexant dose vs cocktail alone; for AUC0–24 ratio Trt D/Trt A / C max ratio Trt D/Trt A: nivasorexant steady state vs cocktail alone
[6] = target: T2, CYP2C19 (Homo sapiens, UniProt P33261); details: for C max / AUC0–24 / t ½: geometric mean (95% CI); for t max: median (range); for t max median difference B–A / t max median difference D–A: median difference (90% CI); for AUC0–24 ratio Trt B/Trt A / C max ratio Trt B/Trt A: initial nivasorexant dose vs cocktail alone
[7] = target: T2, CYP2C19; test: clinical; details: both, in vivo; for AUC(0-t) / half-life: geometric mean (95% CI); for half-life: t ½
[8] = target: T1, CYP3A4; details: cited from earlier work
[9] = Trt A, Day 1, cocktail alone, geometric mean (95% CI)
[10] = Trt B, Day 8, cocktail + initial 100 mg nivasorexant, geometric mean (95% CI)
[11] = Trt B, Day 8, cocktail + initial 100 mg nivasorexant
[12] = Trt D, Day 15, cocktail + nivasorexant at steady state, geometric mean (95% CI)
[13] = Trt D, Day 15, cocktail + nivasorexant at steady state
[14] = ratio of geometric means (90% CI)
[15] = ratio of geometric means (90% CI), nivasorexant steady state vs cocktail alone

T1 sequence (P08684 whole entry): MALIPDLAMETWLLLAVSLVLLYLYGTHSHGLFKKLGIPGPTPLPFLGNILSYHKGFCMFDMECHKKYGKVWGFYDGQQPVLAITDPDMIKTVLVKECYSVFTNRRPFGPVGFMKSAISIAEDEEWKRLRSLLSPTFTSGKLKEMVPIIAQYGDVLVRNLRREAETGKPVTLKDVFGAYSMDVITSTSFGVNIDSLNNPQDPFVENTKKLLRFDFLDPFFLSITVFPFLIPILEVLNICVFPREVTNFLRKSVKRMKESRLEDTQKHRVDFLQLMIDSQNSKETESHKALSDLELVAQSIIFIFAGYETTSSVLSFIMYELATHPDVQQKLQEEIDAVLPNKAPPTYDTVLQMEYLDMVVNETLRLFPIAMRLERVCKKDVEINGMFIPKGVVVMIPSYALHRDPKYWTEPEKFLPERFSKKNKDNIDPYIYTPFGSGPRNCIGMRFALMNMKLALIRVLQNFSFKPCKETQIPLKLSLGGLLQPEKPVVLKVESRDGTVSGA
T2 sequence (P33261 whole entry): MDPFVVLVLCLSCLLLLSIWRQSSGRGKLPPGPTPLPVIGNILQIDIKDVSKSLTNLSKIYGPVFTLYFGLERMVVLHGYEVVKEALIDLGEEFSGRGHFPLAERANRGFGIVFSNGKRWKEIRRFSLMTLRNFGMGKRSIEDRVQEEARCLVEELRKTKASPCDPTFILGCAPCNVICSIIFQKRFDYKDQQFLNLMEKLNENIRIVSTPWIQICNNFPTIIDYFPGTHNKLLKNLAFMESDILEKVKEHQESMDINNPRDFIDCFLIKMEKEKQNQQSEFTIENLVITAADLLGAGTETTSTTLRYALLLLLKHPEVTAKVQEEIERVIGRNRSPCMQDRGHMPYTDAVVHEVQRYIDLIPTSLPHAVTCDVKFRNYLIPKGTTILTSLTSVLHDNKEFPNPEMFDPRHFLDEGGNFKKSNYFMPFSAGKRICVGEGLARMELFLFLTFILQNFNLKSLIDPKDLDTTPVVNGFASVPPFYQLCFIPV
Chain of CYP2C9 (Homo sapiens, UniProt P11712) (P11712 whole entry): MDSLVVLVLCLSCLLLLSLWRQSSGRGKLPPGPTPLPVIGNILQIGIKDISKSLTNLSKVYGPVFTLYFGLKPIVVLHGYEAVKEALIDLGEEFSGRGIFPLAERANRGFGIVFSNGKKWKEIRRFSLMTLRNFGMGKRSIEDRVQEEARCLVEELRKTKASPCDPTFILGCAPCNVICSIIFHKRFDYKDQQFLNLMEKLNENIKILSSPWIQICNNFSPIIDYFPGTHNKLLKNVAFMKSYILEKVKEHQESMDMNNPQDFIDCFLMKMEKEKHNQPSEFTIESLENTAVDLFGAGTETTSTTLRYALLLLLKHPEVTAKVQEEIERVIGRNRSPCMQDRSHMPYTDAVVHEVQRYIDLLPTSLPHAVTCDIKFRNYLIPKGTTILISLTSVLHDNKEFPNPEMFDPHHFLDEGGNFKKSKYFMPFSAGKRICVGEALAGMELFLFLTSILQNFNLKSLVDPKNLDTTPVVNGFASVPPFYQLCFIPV

OC(Cn1cncn1)(Cn1cncn1)c1ccc(F)cc1F [fluconazole]
increase in AUC ratio of CYP2C9 probe substrates [1]: approximately two‐fold

OCc1ncc2n1-c1ccc(Cl)cc1C(c1ccccc1F)=NC2 [1‐OH midazolam, 1‐hydroxy (OH) midazolam]
AUC0–24 [2, 9]: 8.50 (7.23–10.00) ng*h/mL | t ½ [2, 9]: 2.27 (1.58–3.25) h | t max ([2]; Trt A, Day 1, cocktail alone): 0.50 (0.50–3.00) h | AUC0–24 [2, 10]: 8.64 (7.37–10.13) ng*h/mL | C max [2, 10]: 4.12 (3.53–4.82) ng/mL | t ½ [2, 10]: 2.94 (2.04–4.22) h | t max [2, 11]: 0.75 (0.50–1.50) h | AUC0–24 [2, 12]: 9.88 (8.02–12.18) ng*h/mL | t ½ [2, 12]: 9.04 (6.82–11.97) h | t max [2, 13]: 0.50 (0.50–1.50) h | t max median difference B–A [2]: 0.00 (0.000–0.13) h | t max median difference D–A [2]: 0.00 (−0.13–0.13) h | t ½ ratio Trt B/Trt A [2]: 1.29 [1.03–1.62] | t ½ ratio Trt D/Trt A [2]: 3.05 (2.03–4.58) | AUC0–24 ratio Trt B/Trt A [2]: 1.02 (0.96–1.08) | C max ratio Trt B/Trt A [2]: 1.02 (0.91–1.15) | t ½ ratio Trt B/Trt A ([2]; listed as 1‐OH Midazolam): 1.29 (1.03–1.62) | AUC0–24 ratio Trt D/Trt A [2]: 1.15 (1.06–1.24) | C max ratio Trt D/Trt A [2]: 0.86 (0.75–0.98)

COCCCC/C(=N\OCCN)c1ccc(C(F)(F)F)cc1 [fluvoxamine]
increase in omeprazole exposure [3]: 5.6 fold

CC(C(=O)O)c1ccc(-c2ccccc2)c(F)c1 (stereo not shown) [flurbiprofen]
safety and tolerability (in words) [4]: safe and well tolerated | Cmax ([5]; both, human, in vivo, 50 mg, C max, Trt A, Day 1, cocktail alone (flurbiprofen 50 mg), geometric mean (95% CI)): 6410 ng/mL | t max ([5]; both, human, in vivo, t max, Trt A, Day 1, cocktail alone): 2 h | t max ([5]; both, human, in vivo, t max, Trt D, Day 15, cocktail + nivasorexant at steady state): 2.5 h | half-life ([5]; both, human, in vivo, Trt A, Day 1, cocktail alone, geometric mean (95% CI)): 5.73 h | half-life ([5]; both, human, in vivo, Trt D, Day 15, cocktail + nivasorexant at steady state, geometric mean (95% CI)): 7.89 h | t max median difference B–A [5]: 0.75 (0.00–1.51) h | t max median difference D–A [5]: 0.50 (−0.13–1.16) h | t ½ ratio Trt B/Trt A [5]: 1.11 (1.07–1.15) | t ½ ratio Trt D/Trt A [5]: 1.39 (1.31–1.47) | AUC0–24 ratio Trt B/Trt A [5]: 1.04 | C max ratio Trt B/Trt A [5]: 0.97 (0.86–1.08) | AUC0–24 ratio Trt D/Trt A [5]: 1.47 and 1.5 | C max ratio Trt D/Trt A [5]: 1.08 (0.97–1.20)

COc1ccc2nc([S+]([O-])Cc3ncc(CO)c(OC)c3C)[nH]c2c1 (stereo not shown) [5‐OH omeprazole]
C max ([6]; Trt A, Day 1, cocktail alone (omeprazole 20 mg)): 129 (110–151) ng/mL | AUC0–24 ([6]; Trt A, Day 1, cocktail alone): 367 (332–406) ng*h/mL | t ½ ([6]; Trt A, Day 1, cocktail alone): 1.34 (1.20–1.49) h | t max ([6]; Trt A, Day 1, cocktail alone): 3.00 (1.00–6.00) h | AUC0–24 [6, 11]: 338 (314–363) ng*h/mL | C max [6, 11]: 97.0 (85.0–110.7) ng/mL | t ½ [6, 11]: 1.53 (1.30–1.80) h | t max [6, 11]: 3.49 (1.50–6.02) h | AUC0–24 [6, 13]: 278 (253–305) ng*h/mL | t ½ [6, 13]: 2.03 (1.79–2.32) h | t max [6, 13]: 4.00 (1.50–10.00) h | t max median difference B–A [6]: 0.50 (0.00–1.16) h | t max median difference D–A [6]: 1.25 (0.75–2.00) h | t ½ ratio Trt B/Trt A [6, 14]: 1.14 (0.99–1.32) | t ½ ratio Trt D/Trt A [6, 14]: 1.50 (1.36–1.66) | AUC0–24 ratio Trt B/Trt A [6, 14]: 0.92 (0.85–1.00) | C max ratio Trt B/Trt A [6, 14]: 0.75 (0.66–0.86) | AUC0–24 ratio Trt D/Trt A [6, 15]: 0.74 (0.67–0.82)

COc1ccc2[nH]c([S+]([O-])Cc3ncc(C)c(OC)c3C)nc2c1 (stereo not shown) [omeprazole]
Cmax ([7]; 20 mg): 162 ng/mL | AUC(0-t) ([7]; AUC0–24, Trt A, Day 1, cocktail alone): 372 ng·h/mL | AUC(0-t) ([7]; AUC0–24, Trt D, Day 15, cocktail + nivasorexant at steady state): 2670 ng·h/mL | half-life ([7]; Trt A, Day 1, cocktail alone): 0.99 h | half-life [7, 13]: 1.99 h | safety and tolerability (in words) [4]: safe and well tolerated | t max ([6]; Trt A, Day 1, cocktail alone): 3.00 (1.00–6.00) h | t max median difference B–A [6]: 0.5 h | t max median difference D–A [6]: 1.00 h | t max median difference B–A ([6]; listed as Omeprazole): 0.50 (0.00–1.49) h | t max median difference D–A ([6]; listed as Omeprazole): 1.00 (0.50–1.75) h | t ½ ratio Trt B/Trt A [6, 14]: 1.46 (1.24–1.72) | t ½ ratio Trt D/Trt A [6, 14]: 2.01 (1.69–2.40) | AUC0–24 ratio Trt B/Trt A [6, 14]: 2.05 and 2.1 | C max ratio Trt B/Trt A [6, 14]: 1.60 (1.30–1.97) | AUC0–24 ratio Trt D/Trt A [6, 15]: 6.84 and 6.8 | C max ratio Trt D/Trt A [6, 15]: 3.31 (2.55–4.28)

CC(C(=O)O)c1ccc(-c2ccc(O)cc2)c(F)c1 (stereo not shown) [4‐OH flurbiprofen, 4‐hydroxyflurbiprofen]
C max ([5]; Trt A, Day 1, cocktail alone (flurbiprofen 50 mg), geometric mean (95% CI)): 316 (278–359) ng/mL | AUC0–24 [5, 9]: 2516 (2280–2778) ng*h/mL | t ½ [5, 9]: 7.85 (7.04–8.75) h | t max ([5]; Trt A, Day 1, cocktail alone): 3.00 (1.50–6.00) h | AUC0–24 [5, 10]: 2366 (2138–2618) ng*h/mL | C max [5, 10]: 289 (259–322) ng/mL | t ½ [5, 10]: 8.03 (7.28–8.87) h | t max [5, 11]: 3.00 (1.50–6.02) h | AUC0–24 [5, 12]: 1924 (1763–2099) ng*h/mL | t ½ [5, 12]: 12.0 (10.0–14.3) h | t max [5, 13]: 3.00 (1.50–6.00) h | t max median difference B–A [5]: 0.74 (−0.02–1.50) h | t max median difference D–A [5]: 0.50 (−0.04–1.00) h | t ½ ratio Trt B/Trt A [5]: 1.02 (0.97–1.09) | t ½ ratio Trt D/Trt A [5]: 1.54 (1.39–1.70) | AUC0–24 ratio Trt B/Trt A [5]: 0.94 (0.90–0.98) | C max ratio Trt B/Trt A [5]: 0.91 (0.87–0.96) | AUC0–24 ratio Trt D/Trt A [5]: 0.74 (0.70–0.79) | C max ratio Trt D/Trt A [5]: 0.53 (0.49–0.59)

Cc1ncc2n1-c1ccc(Cl)cc1C(c1ccccc1F)=NC2 [midazolam]
t max ([2]; Trt A, Day 1, cocktail alone): 0.75 (0.50–3.00) h | AUC0–24 [2, 10]: 22.7 (19.5–26.5) ng*h/mL | AUC(0-t) ([2]; AUC0–24, Trt A, Day 1, cocktail alone, geometric mean (95% CI)): 14.6 ng·h/mL | AUC(0-t) ([2]; AUC0–24, Trt D, Day 15, cocktail + nivasorexant at steady state, geometric mean (95% CI)): 54.8 ng·h/mL | half-life [2, 9]: 4.94 h | half-life [2, 12]: 6.75 h | t max median difference B–A [2]: 0.00 (−0.13–0.13) h | t max median difference D–A [2]: 0.00 (−0.13–0.13) h | t ½ ratio Trt B/Trt A [2]: 1.67 (1.38–2.01) | t ½ ratio Trt D/Trt A [2]: 1.25 (1.07–1.46) | AUC0–24 ratio Trt B/Trt A [2]: 1.56 and 1.6 | C max ratio Trt B/Trt A [2]: 1.34 (1.22–1.46) | AUC0–24 ratio Trt D/Trt A [2]: 3.71 and 3.7 | C max ratio Trt D/Trt A [2]: 2.62 (2.31–2.97) | safety and tolerability (in words) [4]: safe and well tolerated | increase in midazolam AUC ([8]; initial b.i.d. dosing with 200 mg nivasorexant): 1.8 fold | increase in midazolam AUC ([8]; repeated b.i.d. dosing (over 10 days) with 200 mg nivasorexant): 4.5 fold
